Results on five molecules are retold here after patent US6815465B1, “Heterocyclic compounds inhibiting angiogenesis” (IVAX International GmbH, priority 1999, dated 2004).

Data set [1] relates to ECV 304 endothelial cells. Briefly: Examination of endothelial capillary formation. The format is cell-based. The following applies: for selectivity index: inhibits the capillary formation better than the cell proliferation, in relation to the borrelidin: ECV 304, from ratios of concentrations inhibiting cell proliferation in 50% and capillary formation, relative to borrelidin. How it is done:
Basal membrane protein gel prepared from murine EHS tumor, which induces capillary formation, was put onto ECV 304 endothelial cells. The treatment with the borrelidin and the novel borrelidin derivatives of general formula (I) according to the invention was carried out in the same way as in case of the examination of cell proliferation. The extent by which the cells take part in the capillary formation was examined microscopically and by the aid of a morphometrical program, and the thus-obtained data were expressed in percent of the untreated control.
Namely, it has been stated that, relating to borrelidin, the cell-proliferation-inhibiting effect of the novel derivatives of general formula (I) definitely decreases whereas the capillary-formation-inhibiting effect changes only in a small degree or not at all. The relative degree of selectivity was determined for each compound by […] the ratios of the active agent concentrations that inhibit the cell proliferation in 50% and which inhibit the capillary formation.

For data set [2], the system named is Lewis lung adenocarcinoma. In words: Lewis lung adenocarcinoma metastasis model. The format is in vivo. Particulars: for inhibition of the increase of micrometastases: one fifth of the toxic dose.
Data set [3] has as its system mouse colon adenocarcinoma cells transplanted into the spleen. Briefly: Colon 38 spleen-liver metastasis model. Format: in vivo. Particulars: subtoxic administration. The text has this:
2. In a colon 38 spleen-liver model [Dong, Z. et al., J. Natl. Cancer Inst.

Data set [4] has as its system cells forming capillary tubules. Particulars: cited from earlier work.
Data set [5] relates to PC-3 of human prostate cancer. The following applies: cited from earlier work.
For data set [6] the following is noted: in vivo; cited from earlier work.
Data set [7] relates to cell lines WiDr of human colon cancer. The following applies: cited from earlier work.

Regarding `C[C@@H]1C[C@H](C)C[C@H](C)[C@@H](O)CC(=O)O[C@H]([C@@H]2CCC[C@H]2C(=O)OCCN2CCOCC2)C/C=C/C=C(/C#N)[C@H](O)[C@@H](C)C1` [Example 1, Borrelidin-2-morpholinoethyl ester], the “selectivity index: inhibits the capillary formation better than the cell proliferation, in relation to the borrelidin” value in data set [1] amounted to 60 times.
The same measure, in the same setting: the result for `CC1CC(C)CC(C)C(O)C(C#N)=CC=CCC(C2CCCC2C(=O)OCCc2ccccn2)OC(=O)CC(O)C(C)C1` (stereo not drawn) [Example 2, Borrelidin-2-(2-pyridyl)-ethyl ester] reads 7.5 times; that for `CC1CC(C)CC(C)C(O)C(C#N)=CC=CCC(C2CCCC2C(=O)NCCN2CCOCC2)OC(=O)CC(O)C(C)C1` (stereo not drawn) [Example 4, Borrelidin 2-morpholinoethyl amide], 6 times.
Consider `CC1CC(C)CC(C)C(O)CC(=O)OC(C2CCCC2C(=O)NCc2cccnc2)C(C#N)=CC=CCC(O)C(C)C1` (stereo not drawn) [Example 15, Borrelidin-3-picolylamide], for which the “inhibition of the increase of micrometastases” value in data set [2] (intraperitoneal administration) and in data set [2] (per os administration) was “inhibited very considerably” in each case. In data set [3], the “metastasis-forming ability of mouse colon adenocarcinoma cells transplanted into the spleen” value was “considerably decreased”.
Take `C[C@@H]1C[C@H](C)C[C@H](C)[C@@H](O)CC(=O)O[C@H]([C@@H]2CCC[C@H]2C(=O)O)C/C=C/C=C(/C#N)[C@H](O)[C@@H](C)C1` [borrelidin, 2′-(7-cyano-8,16-dihydroxy-9,11,13,15-tetramethyl-18-oxo-oxacyclooctadeca-4,6-dien-2-yl)-cyclopentane-1′-carboxylic acid]: the “difference in sensitivity of proliferation and capillary formation by the endothelial cells, in favour of capillary formation” value in data set [1] (endothelial cells) is recorded as “about a five fold difference”. The “inhibition of the propagation of metastatic nodules formed after removing the primary tumour in lung” value in data set [2] (Lewis lung adenocarcinoma model) is listed as “inhibited in a very small degree”. Also, the angiogenesis-inhibiting effect result in data set [4] is on record as “induces the apoptosis of the cells forming capillary tubules”. Moreover, the “effectiveness against cell line” value in data set [5] and in data set [7] was “effective” each time. The LD50 value result in data set [6] is listed as “medium”.
